Measured values taken from US11945812B2, “Annulated 2-amino-3-cyano thiophenes and derivatives for the treatment of cancer” (Boehringer Ingelheim International GmbH, priority 2020, dated 2024).
pIC50: −log10 of the molar value. Where two headings read alike, the source gives them in different places.

Experiments:
MiaPaCa-2 cells = assay: MiaPaCa-2 CTG proliferation assay (pancreatic cancer); type: cell-based; details: Homo sapiens, MIA PaCa-2, 120 h; MiaPaCa-2 CTG proliferation, 5 days; read-out: IC50 MiaPACA2
Description: MiaPaCa-2 CTG Proliferation Assay (Pancreatic Cancer)
MiaPaCa-2 cells (ATCC® CRM-CRL-1420™) were grown in cell culture flasks (175 cm^2) using DMEM medium supplemented with 10% fetal bovine serum. […] Materials used for the assay were CulturPlate-384, White Opaque 384-well microplate, Sterile and Tissue Culture Treated (Perkin Elmer #6007680), DMEM medium and FBS # SH30071.03 (HyClone).
The proliferation assays started (day1) with seeding cells in flat bottom 384 well microtiter plates in 90 μL DMEM medium supplemented with 10% FBS at a density of 500 cells/well. Any other luminescence compatible plate format is possible. On day 2, 10 μL dilutions of the test compounds covering a concentration range between app. 0, 1 and 10.000 nM were added to the cells. Cells were incubated for 5 days in a humidified, incubator with 5% CO2 at 37° C. On day 7 100 μl of Cell Titer Glow reagent (Cell titer Glo Luminescent Cat. No. G7571, Promega) were added to each well and incubated for additional 10 min at room temperature (with agitation). Luminescence was measured on a Wallac Victor using standard luminescence read out. IC50 values were calculated using standard Levenburg Marquard algorithms (GraphPad Prism).

[1] = Plasma protein binding (equilibrium dialysis), human plasma; type: in vitro ADME; details: read-out: PPB human fu
Description: (§1) Plasma Protein Binding (PPB)
(§2) Binding of test compound to plasma was determined using equilibrium dialysis (ED) and quantitative mass spectrometry interfaced with liquid chromatography (LC-MS). In brief, ED was performed with dialysis devices consisting of two chambers separated by a semipermeable membrane with a molecular weight cut-off of 5-10 kg/mol. One chamber was filled with commercially sourced plasma (mouse and human plasma, respectively) or serum (10% FCS in PBS) containing 1-10 μmol/L test compound and the other chamber was filled with phosphate-buffer saline (PBS) with or without dextran. The dialysis chamber was incubated for 3-5 hours at 37° C. After incubation, protein was precipitated from aliquots of each chamber and the concentration of test compound in the supernatant of the plasma-containing compartment (cplasma) and of the buffer-containing compartment (Cbuffer) was determined by LC-MS. The fraction of unbound test compound (not bound to plasma) (fu) was calculated according to the following equation: […]

[2] = target: Ba/F3 cells bearing a KRAS G12C mutation (Homo sapiens, UniProt P01116, G12C, cells depend on it); assay: Ba/F3 cell model proliferation assay (AlamarBlue, 72 h); type: cell-based
Sequence of Ba/F3 cells bearing a KRAS G12C mutation (P01116 whole entry G12C): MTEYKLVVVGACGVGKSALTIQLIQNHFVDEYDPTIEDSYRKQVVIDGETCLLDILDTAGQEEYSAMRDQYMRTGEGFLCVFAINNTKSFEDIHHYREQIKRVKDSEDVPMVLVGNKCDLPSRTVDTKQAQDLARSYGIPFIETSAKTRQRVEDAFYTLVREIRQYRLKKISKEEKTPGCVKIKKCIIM
Description: Ba/F3 Cell Model Generation and Proliferation Assay
Plasmids containing KRASG12 mutants were obtained from GeneScript. To generate KRASG12-dependent Ba/F3 models, Ba/F3 cells were transduced with retroviruses containing vectors that harbor KRASG12 isoforms. Platinum-E cells (Cell Biolabs) were used for retrovirus packaging. Retrovirus was added to Ba/F3 cells. To ensure infection, 4 μg/mL polybrene was added and cells were spinfected. […] Cells with an infection efficiency of 10% to 20% were further cultivated and puromycin selection with 1 μg/mL was initiated. As a control, parental Ba/F3 cells were used to show selection status. Selection was considered successful when parental Ba/F3 cells cultures died. To evaluate the transforming potential of KRASG12 mutations, the growth medium was no longer supplemented with IL-3. Ba/F3 cells harboring the empty vector were used as a control. Approximately ten days before conducting the experiments, puromycin was left out.
All treatments were performed in technical duplicates. The assay is run using a fully automated robotic system. Treated cells were incubated for 72 h at 37° C. with 5% CO2. AlamarBlue™ (ThermoFisher), a viability stain, was added and fluorescence measured in the PerkinElmer Envision HTS Multilabel Reader.

[3] = Plasma protein binding (equilibrium dialysis), serum 10% FCS in PBS; type: in vitro ADME; details: bovine, 10% FCS in PBS (serum), read-out: PPB 10% FCS fu
Description: as §1, §2

[4] = Ba/F3 KRAS G12C cells, 72 h, 10% FCS, uncorrected, read-out: IC50 Ba/F3 KRASG12C
[5] = corrected by plasma protein binding in 10% FCS (fraction unbound), read-out: IC50 Ba/F3 KRASG12C (corrected)

| SMILES | pIC50 (MiaPaCa-2 cells) | fraction unbound [1] | GI50 [2, 4] [nM] | GI50 [2, 5] [nM] | fraction unbound [3] |
| --- | --- | --- | --- | --- | --- |
| C=CC(=O)N1CCN(c2cc(O[C@@H](C)[C@@H]3CCCN3C)nc(-c3cc([C@@]4(C)CCCc5sc(N)c(C#N)c54)on3)n2)CC12CC2 [Ib-5] | 7.55 | 0.019 | 3.8 | 0.22 | 0.058 |
| C=CC(=O)N1CCN(c2cc(O[C@@H](C)[C@@H]3CCCN3C)nc(-c3cc(C4(C)CCCc5sc(N)c(C#N)c54)on3)n2)CC1 (stereo partly shown) [Ib-6] | 8.05 | 0.059 | 1.6 | 0.27 | 0.167 |
| COC/C=C/C(=O)N1CCN(c2cc(O[C@@H](C)[C@@H]3CCCN3C)nc(-c3cc([C@@]4(C)CCCc5sc(N)c(C#N)c54)on3)n2)[C@H](C)C1 [Ib-14] | 7.44 | 0.016 | 16 | 1.06 | 0.066 |
| C=CC(=O)N1CCN(c2cc(O[C@@H](C)[C@@H]3CCCN3C)nc(-c3cc([C@@]4(C)CCCc5sc(N)c(C#N)c54)no3)n2)CC12CC2 [Ic-3] | 6.91 | 0.028 | 5.5 | 0.6 | 0.109 |
| C=CC(=O)N1CCC(Oc2cc(N3CCN(C)C[C@@H]3C)nc(-c3cc(C4(C)CCCc5sc(N)c(C#N)c54)no3)n2)CC1 (stereo partly shown) [Ic-7] | 6.48 | 0.02 | 35.3 | 8.9 | 0.252 |
| COC/C=C/C(=O)N1CCN(c2cc(O[C@@H](C)[C@@H]3CCCN3C)nc(-c3cc(C4(C)CCCc5sc(N)c(C#N)c54)no3)n2)CC1 (stereo partly shown) [Ic-9] | 6.48 | 0.043 | 87 | 22.5 | 0.259 |
| C=CC(=O)N1CCN(c2cc(O[C@@H](C)[C@@H]3CCCN3C)nc(-c3cc([C@@]4(C)CCCc5sc(N)c(C#N)c54)sn3)n2)CC1 [Id-1] | 8.65 | – | 0.4 | 0.19 | 0.476 |
| C=CC(=O)N1CCN(c2cc(O[C@@H](C)[C@@H]3CCCN3C)nc(-c3cc([C@@]4(C)CCCc5sc(N)c(C#N)c54)sn3)n2)CC12CC2 [Id-5] | 7.57 | – | 3.2 | 1.08 | 0.338 |
| C=CC(=O)N1CCC(Oc2cc(O[C@@H](C)[C@@H]3CCCN3C)nc(-c3cc([C@@]4(C)CCCc5sc(N)c(C#N)c54)sn3)n2)CC1 [Id-6] | 7.86 | – | 0.2 | 0.1 | 0.521 |

Now from value to compound:

| pIC50 (MiaPaCa-2 cells) | fraction unbound [1] | GI50 [2, 4] [nM] | GI50 [2, 5] [nM] | fraction unbound [3] | SMILES |
| --- | --- | --- | --- | --- | --- |
| 7.65 | 0.032 | 1.8 | 0.14 | 0.075 | C=CC(=O)N1CCN(c2cc(O[C@@H](C)[C@@H]3CCCN3C)nc(-c3cc([C@@]4(C)CCCc5sc(N)c(C#N)c54)on3)n2)[C@H](C)C1 [Ib-1] |
| 7.70 | 0.021 | 1.7 | 0.09 | 0.055 | C=CC(=O)N1[C@@H](C)CN(c2cc(O[C@@H](C)[C@@H]3CCCN3C)nc(-c3cc([C@@]4(C)CCCc5sc(N)c(C#N)c54)on3)n2)C[C@@H]1C [Ib-4] |
| 7.25 | 0.013 | 13.1 | 0.83 | 0.063 | C=C(F)C(=O)N1CCN(c2cc(O[C@@H](C)[C@@H]3CCCN3C)nc(-c3cc([C@@]4(C)CCCc5sc(N)c(C#N)c54)on3)n2)[C@H](C)C1 [Ib-10] |
| 6.98 | – | 12.6 | 0.57 | 0.045 | C=C(F)C(=O)N1[C@@H](C)CN(c2cc(O[C@@H](C)[C@@H]3CCCN3C)nc(-c3cc([C@@]4(C)CCCc5sc(N)c(C#N)c54)on3)n2)C[C@@H]1C [Ib-11] |
| 8.16 | 0.027 | 1.8 | 0.15 | 0.083 | C=CC(=O)N1[C@@H](C)CN(c2cc(O[C@@H](C)[C@@H]3CCCN3C)nc(-c3cc([C@@]4(C)CCCc5sc(N)c(C#N)c54)no3)n2)C[C@@H]1C [Ic-4] |
| 7.32 | 0.02 | 6.7 | 0.99 | 0.148 | C=CC(=O)N1[C@H](C)CN(c2cc(O[C@@H](C)[C@@H]3CCCN3C)nc(-c3cc([C@@]4(C)CCCc5sc(N)c(C#N)c54)no3)n2)C[C@@H]1C [Ic-5] |
| 6.40 | – | 35.6 | 2.78 | 0.078 | C=C(F)C(=O)N1[C@@H](C)CN(c2cc(O[C@@H](C)[C@@H]3CCCN3C)nc(-c3cc([C@@]4(C)CCCc5sc(N)c(C#N)c54)no3)n2)C[C@@H]1C [Ic-8] |
| 7.67 | 0.009 | 2 | 0.87 | 0.434 | C=CC(=O)N1[C@H](C)CN(c2cc(O[C@@H](C)[C@@H]3CCCN3C)nc(-c3cc([C@@]4(C)CCCc5sc(N)c(C#N)c54)sn3)n2)C[C@@H]1C [Id-2] |
| 7.82 | 0.014 | 1.3 | 0.48 | 0.371 | C=CC(=O)N1[C@@H](C)CN(c2cc(O[C@@H](C)[C@@H]3CCCN3C)nc(-c3cc([C@@]4(C)CCCc5sc(N)c(C#N)c54)sn3)n2)C[C@@H]1C [Id-4] |
